The record followed here is patent EP1389624A1, “Phosphorous-containing cysteine and serine protease inhibitors” (CEPHALON, INC., priority 1995, dated 1997).

Each structure is given as a SMILES string.

In one assay the target is T1, Calpain I (Homo sapiens, UniProt P07384).
T1 sequence (P07384 1-714): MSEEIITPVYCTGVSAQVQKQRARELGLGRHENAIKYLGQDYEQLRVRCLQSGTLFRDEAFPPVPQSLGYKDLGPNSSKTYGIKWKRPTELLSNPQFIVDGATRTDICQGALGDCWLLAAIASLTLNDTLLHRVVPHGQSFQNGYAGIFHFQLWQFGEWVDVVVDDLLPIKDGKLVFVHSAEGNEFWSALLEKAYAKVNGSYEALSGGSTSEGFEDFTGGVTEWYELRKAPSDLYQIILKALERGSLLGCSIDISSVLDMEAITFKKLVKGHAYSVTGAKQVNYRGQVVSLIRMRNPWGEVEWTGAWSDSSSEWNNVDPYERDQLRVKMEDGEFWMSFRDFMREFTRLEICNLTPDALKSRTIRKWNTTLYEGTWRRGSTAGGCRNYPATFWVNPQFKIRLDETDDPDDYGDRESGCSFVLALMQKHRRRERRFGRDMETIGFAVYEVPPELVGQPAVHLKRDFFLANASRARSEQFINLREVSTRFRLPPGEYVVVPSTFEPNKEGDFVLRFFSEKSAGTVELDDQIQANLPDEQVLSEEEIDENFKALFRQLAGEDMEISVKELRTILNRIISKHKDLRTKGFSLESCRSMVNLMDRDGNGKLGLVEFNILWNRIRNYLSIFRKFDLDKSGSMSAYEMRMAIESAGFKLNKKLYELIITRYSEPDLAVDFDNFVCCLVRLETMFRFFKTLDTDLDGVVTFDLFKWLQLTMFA
T1 sequence (P04632 1-268 partner): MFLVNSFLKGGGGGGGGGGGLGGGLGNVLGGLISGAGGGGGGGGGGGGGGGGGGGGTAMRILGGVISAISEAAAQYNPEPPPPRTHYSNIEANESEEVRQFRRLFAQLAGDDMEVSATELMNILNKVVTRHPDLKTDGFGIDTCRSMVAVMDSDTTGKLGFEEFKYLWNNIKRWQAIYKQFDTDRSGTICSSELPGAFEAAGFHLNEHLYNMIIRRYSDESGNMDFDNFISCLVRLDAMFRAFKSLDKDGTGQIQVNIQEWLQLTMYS
The assay is described as follows: Inhibition and rate of inactivation of cysteine protease (calpain I) activity, Succ-Leu-Tyr-MNA substrate hydrolysis.
Settings: not given
Consider `CC(C)CC(NC(=O)C12OC3COC(C)(C)OC3C1OC(C)(C)O2)C(=O)NC(Cc1ccccc1)C(=O)COP(=O)(OCc1ccccc1)OCc1ccccc1` [Example 37, Dibenzyl (3S)-[3-[(N-diisopropylidine-2-keto-L-gulonyl-L-leucyl)amino)-2-oxo-4-phenylbutyl] phosphate], for which the “kobs/I x 10^-3 M^-1s^-1” value is reported as 113 x 10^-3 M^-1s^-1.

Staying with this assay, now noted: apparent second order rate constant of inactivation from reaction progress curves under pseudo-first order conditions; mean of three or more determinations.
As to `CC(C)C[C@H](NC(=O)C12OC(CO)C(O)C1OC(C)(C)O2)C(=O)N[C@@H](Cc1ccccc1)C(=O)COP(=O)(OCc1ccccc1)OCc1ccccc1` (stereo partly drawn) [Example 38, Dibenzyl (3S)-[3-[(N-monoisopropylidine-2-keto-L-gulonyl-L-leucyl)amino]-2-oxo-4-phenylbutyl] phosphate], the “kobs/I x 10^-3 M^-1s^-1” value is 116 x 10^-3 M^-1s^-1.

Still in this assay, the particulars now being: read-out: % Inhib. @ 0.1 uM.
For the compound `CC(C)C[C@H](NC(=O)OC(C)(C)C)C(=O)N[C@@H](Cc1ccccc1)C(=O)COP(=O)(OCc1ccccc1)OCc1ccccc1` [Example 35, Dibenzyl (3S)-[3-[(N-t-Butoxycarbonyl-L-leucyl)amino]-2-oxo-4-phenylbutyl] phosphate], the inhibition at 0.1 µM is 100%.

Turning to `CC(C)C[C@H](NC(=O)OCc1ccccc1)C(=O)N[C@@H](Cc1ccccc1)C(=O)COP(=O)(OCc1cccc(Oc2ccccc2)c1)OCc1cccc(Oc2ccccc2)c1` [Example 40, Bis(3-phenoxybenzyl) (3S)-[3-[(N-Benzyloxycarbonyl-L-leucyl)amino]-2-oxo-4-phenylbutyl] phosphate], the inhibition at 0.1 µM was 53%. With `CC(C)C[C@H](NC(=O)OC(C)(C)C)C(=O)N[C@@H](Cc1ccccc1)C(=O)COP(=O)(O)O` [Example 41, Dihydrogen (3S)-[3-[(N-t-Butoxycarbonyl-L-leucyl)amino]-2-oxo-4-phenylbutyl] phosphate], the inhibition at 0.1 µM was found to be 7%.

`CC(C)C[C@H](NC(=O)OC(C)(C)C)C(=O)N[C@@H](Cc1ccccc1)C(=O)COP(=O)(OCCC1CCCCC1)OCCC1CCCCC1` [Example 45, Bis(2-cyclohexylethyl) (3S)-[3-[(N-t-Butoxycarbonyl-L-leucyl)amino]-2-oxo-4-phenylbutyl] phosphate]: the inhibition at 0.1 µM turned out to be 28%.

The assay is the same for the next values; noted with them: read-out: kobs/I x 10^-3 M^-1s^-1.
On to `CC(C)C[C@H](NC(=O)OCc1ccccc1)C(=O)N[C@@H](Cc1ccccc1)C(=O)COP(=O)(OCc1ccccc1)OCc1ccccc1` [Example 34, Dibenzyl (3S)-[3-[(N-Benzyloxycarbonyl-L-leucyl)amino]-2-oxo-4-phenylbutyl] phosphate], for which the kinact/KI came to 100000 M⁻¹ s⁻¹. For `CC(C)C[C@H](NC(=O)OC(C)(C)C)C(=O)N[C@@H](Cc1ccccc1)C(=O)COP(=O)(OCc1ccccc1)OCc1ccccc1` [Example 35, Dibenzyl (3S)-[3-[(N-t-Butoxycarbonyl-L-leucyl)amino]-2-oxo-4-phenylbutyl] phosphate], the kinact/KI was determined as 242000 M⁻¹ s⁻¹. For the compound `Cc1ccccc1COP(=O)(OCC(=O)[C@H](Cc1ccccc1)NC(=O)[C@H](CC(C)C)NC(=O)OCc1ccccc1)OCc1ccccc1C` [Example 39, Bis(2-methylbenzyl) (3S)-[3-[(N-Benzyloxycarbonyl-L-leucyl)amino]-2-oxo-4-phenylbutyl] phosphate], the kinact/KI was 365000 M⁻¹ s⁻¹. As for `CC(C)C[C@H](NC(=O)OC(C)(C)C)C(=O)N[C@@H](Cc1ccccc1)C(=O)COP(=O)(O)O` [Example 41, Dihydrogen (3S)-[3-[(N-t-Butoxycarbonyl-L-leucyl)amino]-2-oxo-4-phenylbutyl] phosphate], the kinact/KI is below 20000 M⁻¹ s⁻¹. Consider `COP(=O)(OC)OCC(=O)[C@H](Cc1ccccc1)NC(=O)[C@H](CC(C)C)NC(=O)OCc1ccccc1` [Example 42, Dimethyl (3S)-[3-[(N-Benzyloxycarbonyl-L-leucyl)amino]-2-oxo-4-phenylbutyl] phosphate], for which the kinact/KI is 20000 M⁻¹ s⁻¹. `CCCCOP(=O)(OCCCC)OCC(=O)[C@H](Cc1ccccc1)NC(=O)[C@H](CC(C)C)NC(=O)OCc1ccccc1` [Example 43, Dibutyl (3S)-[3-[(N-Benzyloxycarbonyl-L-leucyl)amino]-2-oxo-4-phenylbutyl] phosphate]: the kinact/KI amounted to 40000 M⁻¹ s⁻¹. As for `CCCCC(CC)COP(=O)(OCC(=O)[C@H](Cc1ccccc1)NC(=O)[C@H](CC(C)C)NC(=O)OCc1ccccc1)OCC(CC)CCCC` (stereo partly drawn) [Example 44, Bis(2-ethylhexyl) (3S)-[3-[(N-Benzyloxycarbonyl-L-leucyl)amino]-2-oxo-4-phenylbutyl] phosphate], the kinact/KI came out at 1000 M⁻¹ s⁻¹.
